The target of one assay is T1, SMARCA2 (Homo sapiens, UniProt P51531).
T1 construct: SMARCA2-HiBiT knock-in Hela monoclonal cell (CS302366); host or cells: HeLa (CRISPR HiBiT knock-in monoclonal line, heterozygous)
The assay can be described thus: SMARCA2 HiBiT degradation assay in HeLa cells. The format is cell-based. As to conditions: 18 hours; for DC50: read-out: SMARCA2 IC50; for Dmax: HeLa. The method in brief:
(§1)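 Degradation measured as HiBiT luminescence (Nano-Glo lytic reagent) after 18 h compound exposure at 37° C. Cells were HeLa clones carrying heterozygous HiBiT tags on SMARCA2 or SMARCA4, 2500 per well; compounds at 3-fold serial dilution from 10 μM.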
(In general: The HiBiT peptide binds its large partner to form an active luciferase.)

Another assay has as its target T2, SMARCA4 (Homo sapiens, UniProt P51532).
T2 construct: SMARCA4-HiBiT knock-in Hela monoclonal cell (CS3023226) were purchased from Promega; host or cells: HeLa (CRISPR HiBiT knock-in monoclonal line, heterozygous)
The assay can be described thus: SMARCA4 HiBiT degradation assay in HeLa cells. The format is cell-based. As to conditions: 18 hours; for Dmax: HeLa. The method in brief:
as §1

The term Dmax denotes the greatest extent of degradation seen. Read a low Dmax as a partial loss of target.

T1 sequence (P51531 whole entry): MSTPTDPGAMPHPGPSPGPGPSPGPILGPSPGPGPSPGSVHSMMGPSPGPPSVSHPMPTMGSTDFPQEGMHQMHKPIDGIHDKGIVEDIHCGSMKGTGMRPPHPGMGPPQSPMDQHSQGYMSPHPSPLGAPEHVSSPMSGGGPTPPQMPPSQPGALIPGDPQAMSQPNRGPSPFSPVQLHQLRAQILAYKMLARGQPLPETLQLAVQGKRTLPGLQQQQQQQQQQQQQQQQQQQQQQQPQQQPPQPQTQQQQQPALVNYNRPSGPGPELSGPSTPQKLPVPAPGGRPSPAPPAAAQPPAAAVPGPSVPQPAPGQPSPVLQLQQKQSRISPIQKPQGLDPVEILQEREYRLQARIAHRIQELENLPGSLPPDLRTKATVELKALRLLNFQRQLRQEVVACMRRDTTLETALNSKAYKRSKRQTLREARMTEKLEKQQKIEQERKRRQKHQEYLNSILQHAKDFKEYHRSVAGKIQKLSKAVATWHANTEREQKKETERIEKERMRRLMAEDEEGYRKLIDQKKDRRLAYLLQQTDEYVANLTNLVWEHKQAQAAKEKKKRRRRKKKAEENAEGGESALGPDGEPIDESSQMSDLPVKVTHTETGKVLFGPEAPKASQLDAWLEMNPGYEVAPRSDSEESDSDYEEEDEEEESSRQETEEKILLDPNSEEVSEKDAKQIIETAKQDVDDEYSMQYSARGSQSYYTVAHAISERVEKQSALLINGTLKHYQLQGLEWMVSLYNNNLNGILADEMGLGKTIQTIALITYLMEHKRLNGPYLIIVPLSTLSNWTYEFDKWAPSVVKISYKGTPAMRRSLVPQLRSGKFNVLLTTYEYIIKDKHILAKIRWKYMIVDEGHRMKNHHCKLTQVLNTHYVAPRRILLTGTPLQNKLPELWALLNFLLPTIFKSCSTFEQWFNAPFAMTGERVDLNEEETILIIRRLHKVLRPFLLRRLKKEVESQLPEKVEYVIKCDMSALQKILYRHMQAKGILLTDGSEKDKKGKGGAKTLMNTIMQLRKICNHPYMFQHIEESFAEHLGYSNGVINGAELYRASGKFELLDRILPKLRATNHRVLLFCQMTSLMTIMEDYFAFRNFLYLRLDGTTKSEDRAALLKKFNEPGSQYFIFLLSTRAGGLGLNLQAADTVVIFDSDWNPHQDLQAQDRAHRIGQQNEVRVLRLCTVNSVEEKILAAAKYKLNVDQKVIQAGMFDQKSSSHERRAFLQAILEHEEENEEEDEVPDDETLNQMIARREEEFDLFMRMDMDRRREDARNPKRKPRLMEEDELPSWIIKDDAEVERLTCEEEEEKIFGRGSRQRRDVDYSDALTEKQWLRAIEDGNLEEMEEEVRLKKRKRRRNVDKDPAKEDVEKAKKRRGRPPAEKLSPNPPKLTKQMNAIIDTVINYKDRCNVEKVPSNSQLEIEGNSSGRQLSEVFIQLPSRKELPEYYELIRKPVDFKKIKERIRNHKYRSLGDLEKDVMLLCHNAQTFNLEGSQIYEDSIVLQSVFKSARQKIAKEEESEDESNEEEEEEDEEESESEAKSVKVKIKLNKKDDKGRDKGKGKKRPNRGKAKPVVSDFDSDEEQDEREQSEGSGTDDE
T2 sequence (P51532 whole entry): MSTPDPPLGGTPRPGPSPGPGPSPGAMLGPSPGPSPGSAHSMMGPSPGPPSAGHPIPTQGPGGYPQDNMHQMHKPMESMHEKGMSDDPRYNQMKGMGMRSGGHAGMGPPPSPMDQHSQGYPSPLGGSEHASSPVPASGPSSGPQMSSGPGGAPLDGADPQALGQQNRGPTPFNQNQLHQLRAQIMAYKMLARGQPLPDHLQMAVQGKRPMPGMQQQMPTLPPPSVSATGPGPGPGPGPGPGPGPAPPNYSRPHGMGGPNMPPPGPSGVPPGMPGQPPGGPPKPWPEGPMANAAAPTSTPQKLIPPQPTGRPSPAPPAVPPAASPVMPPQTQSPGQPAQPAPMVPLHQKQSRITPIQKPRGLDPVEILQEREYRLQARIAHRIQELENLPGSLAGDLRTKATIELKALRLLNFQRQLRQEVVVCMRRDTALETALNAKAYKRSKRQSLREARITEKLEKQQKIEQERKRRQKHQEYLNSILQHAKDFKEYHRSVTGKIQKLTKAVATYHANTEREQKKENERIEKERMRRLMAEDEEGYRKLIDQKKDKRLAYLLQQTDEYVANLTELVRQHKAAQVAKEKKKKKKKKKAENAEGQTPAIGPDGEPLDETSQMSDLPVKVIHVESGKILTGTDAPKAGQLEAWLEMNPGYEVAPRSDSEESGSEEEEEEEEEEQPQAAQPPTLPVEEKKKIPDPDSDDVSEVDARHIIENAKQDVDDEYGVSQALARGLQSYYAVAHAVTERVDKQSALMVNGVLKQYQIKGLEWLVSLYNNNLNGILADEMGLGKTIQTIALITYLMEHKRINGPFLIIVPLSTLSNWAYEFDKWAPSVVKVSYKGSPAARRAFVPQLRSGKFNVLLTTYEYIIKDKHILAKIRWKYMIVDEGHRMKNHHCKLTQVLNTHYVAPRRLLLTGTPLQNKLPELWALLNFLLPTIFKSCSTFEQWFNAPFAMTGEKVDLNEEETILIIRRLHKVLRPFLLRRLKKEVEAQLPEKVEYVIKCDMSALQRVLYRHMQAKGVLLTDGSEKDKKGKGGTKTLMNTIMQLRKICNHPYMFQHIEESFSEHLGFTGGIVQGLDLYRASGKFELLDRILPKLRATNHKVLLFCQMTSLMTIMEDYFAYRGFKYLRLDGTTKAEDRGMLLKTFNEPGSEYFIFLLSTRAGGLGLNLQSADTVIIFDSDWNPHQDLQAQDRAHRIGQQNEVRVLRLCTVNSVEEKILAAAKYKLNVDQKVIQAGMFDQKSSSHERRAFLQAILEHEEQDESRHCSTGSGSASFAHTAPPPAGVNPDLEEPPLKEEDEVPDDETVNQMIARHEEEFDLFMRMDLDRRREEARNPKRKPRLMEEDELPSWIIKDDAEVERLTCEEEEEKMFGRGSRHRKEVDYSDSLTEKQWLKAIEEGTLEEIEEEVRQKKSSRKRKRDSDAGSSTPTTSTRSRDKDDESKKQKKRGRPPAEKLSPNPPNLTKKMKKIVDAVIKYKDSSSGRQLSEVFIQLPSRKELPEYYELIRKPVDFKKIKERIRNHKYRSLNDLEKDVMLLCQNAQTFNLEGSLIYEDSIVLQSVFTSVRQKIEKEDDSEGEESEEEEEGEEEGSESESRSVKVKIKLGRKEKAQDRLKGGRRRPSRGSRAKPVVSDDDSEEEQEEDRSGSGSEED

As for `C[C@@H]1CN(CC2CN(c3ccc4c(c3)C(=O)N(C3CCC(=O)NC3=O)C4)C2)C[C@H](C)N1C(=O)N1C[C@@H]2CNc3nnc(-c4cc(F)cc(F)c4O)cc3N2C[C@@H]1C` (stereo partly drawn) [Example 24, 3-(6-(3-(((3S,5R)-4-((6aS,9S)-2-(3,5-difluoro-2-hydroxyphenyl)-9-methyl-6,6a,7,8,9,10-hexahydro-5H-pyrazino[1′,2′:4,5]pyrazino[2,3-c]pyridazine-8-carbonyl)-3,5-dimethylpiperazin-1-yl)methyl)azetidin-1-yl)-1-oxoisoindolin-2-yl)piperidine-2,6-dione], on SMARCA2, the DC50 is < 100 nM and the Dmax is > 75%. Besides, at SMARCA4, the DC50 was > 1000 nM and the Dmax was < 50%.
On the same counts, the results for `C[C@H]1CN2c3cc(-c4cc(F)cc(F)c4O)nnc3NC[C@H]2CN1C(=O)N1CCN(CC2CCN(c3ccc4c(c3)C(=O)N(C3CCC(=O)NC3=O)C4)CC2)CC1(C)C` (stereo partly drawn) [Example 25, 3-(6-(4-((4-((6aS,9S)-2-(3,5-difluoro-2-hydroxyphenyl)-9-methyl-6,6a,7,8,9,10-hexahydro-5H-pyrazino[1′,2′:4,5]pyrazino[2,3-c]pyridazine-8-carbonyl)-3,3-dimethylpiperazin-1-yl)methyl)piperidin-1-yl)-1-oxoisoindolin-2-yl)piperidine-2,6-dione] are < 100 nM, > 75%, < 100 nM and < 50%.
`C[C@@H]1CN(CC2CCN(c3ccc4c(c3)C(=O)N(C3CCC(=O)NC3=O)C4)CC2)C[C@H](C)N1C(=O)N1CCN2c3cc(-c4cc(F)cc(F)c4O)nnc3NCC2(C)C1` (stereo partly drawn) [Example 26, 3-(6-(4-(((3S,5R)-4-(2-(3,5-difluoro-2-hydroxyphenyl)-6a-methyl-6,6a,7,8,9,10-hexahydro-5H-pyrazino[1′,2′:4,5]pyrazino[2,3-c]pyridazine-8-carbonyl)-3,5-dimethylpiperazin-1-yl)methyl)piperidin-1-yl)-1-oxoisoindolin-2-yl)piperidine-2,6-dione]: at SMARCA2, the DC50 was < 100 nM and the Dmax was > 75%. At SMARCA4, the DC50 was < 100 nM and the Dmax was > 75%.
Take `C[C@@H]1CN(CC2CCN(c3ccc4c(c3)C(=O)N(C3CCC(=O)NC3=O)C4)CC2)C[C@H](C)N1C(=O)N1CCN2c3cc(-c4cccc(Cl)c4O)nnc3NCC2(C)C1` (stereo partly drawn) [Example 30, 3-(6-(4-(((3R,5S)-4-(2-(3-chloro-2-hydroxyphenyl)-6a-methyl-6,6a,7,8,9,10-hexahydro-5H-pyrazino[1′,2′:4,5]pyrazino[2,3-c]pyridazine-8-carbonyl)-3,5-dimethylpiperazin-1-yl)methyl)piperidin-1-yl)-1-oxoisoindolin-2-yl)piperidine-2,6-dione]: at SMARCA2, the DC50 is < 100 nM and the Dmax is > 75%. Also, on SMARCA4, the DC50 is < 100 nM and the Dmax was 50 to 75%.
Regarding `C[C@@H]1CN(CC2CCN(c3ccc4c(c3)C(=O)N(C3CCC(=O)NC3=O)C4)CC2)C[C@@H](C)N1C(=O)N1CCN2c3cc(-c4cc(F)cc(F)c4O)nnc3NCC2(C)C1` (stereo partly drawn) [Example 33, 3-(6-(4-(((3R,5R)-4-(2-(3,5-difluoro-2-hydroxyphenyl)-6a-methyl-6,6a,7,8,9,10-hexahydro-5H-pyrazino[1′,2′:4,5]pyrazino[2,3-c]pyridazine-8-carbonyl)-3,5-dimethylpiperazin-1-yl)methyl)piperidin-1-yl)-1-oxoisoindolin-2-yl)piperidine-2,6-dione], on SMARCA2, the DC50 was < 100 nM and the Dmax is > 75%. In addition, on SMARCA4, the DC50 was < 100 nM and the Dmax was > 75%.
With `C[C@@H]1CN(CC2CCN(c3ccc4c(c3)C(=O)N(C3CCC(=O)NC3=O)C4=O)CC2)C[C@H](C)N1C(=O)N1CCN2c3cc(-c4cc(F)cc(F)c4O)nnc3NCC2(C)C1` (stereo partly drawn) [Example 36, 5-(4-(((3S,5R)-4-(2-(3,5-difluoro-2-hydroxyphenyl)-6a-methyl-6,6a,7,8,9,10-hexahydro-5H-pyrazino[1′,2′:4,5]pyrazino[2,3-c]pyridazine-8-carbonyl)-3,5-dimethylpiperazin-1-yl)methyl)piperidin-1-yl)-2-(2,6-dioxopiperidin-3-yl)isoindoline-1,3-dione], at SMARCA2, the DC50 is < 100 nM and the Dmax is > 75%. At SMARCA4, the DC50 was < 100 nM and the Dmax is > 75%.
On to `C[C@@H]1CN(CC2CCN(c3ccc4c(c3)C(=O)N(C3CCC(=O)NC3=O)C4)CC2)C[C@@H](C)N1C(=O)N1CCN2c3cc(-c4cc(F)cc(F)c4O)nnc3NC[C@H]2C1` (stereo partly drawn) [Example 45, 3-(6-(4-(((3R,5R)-4-((S)-2-(3,5-difluoro-2-hydroxyphenyl)-6,6a,7,8,9,10-hexahydro-5H-pyrazino[1′,2′:4,5]pyrazino[2,3-c]pyridazine-8-carbonyl)-3,5-dimethylpiperazin-1-yl)methyl)piperidin-1-yl)-1-oxoisoindolin-2-yl)piperidine-2,6-dione], for which the DC50 on SMARCA2 and on SMARCA4 was < 100 nM throughout. Moreover, the results for the Dmax on SMARCA2 and at SMARCA4 were > 75% and < 50%, respectively.
With `C[C@@H]1CN(C[C@H]2CN(c3ccc4c(c3)CN(C3CCC(=O)NC3=O)C4=O)CCO2)C[C@@H](C)N1C(=O)N1CCN2c3cc(-c4cc(F)cc(F)c4O)nnc3NC[C@H]2C1` (stereo partly drawn) [Example 46, 3-(5-((S)-2-(((3R,5R)-4-((S)-2-(3,5-difluoro-2-hydroxyphenyl)-6,6a,7,8,9,10-hexahydro-5H-pyrazino[1′,2′:4,5]pyrazino[2,3-c]pyridazine-8-carbonyl)-3,5-dimethylpiperazin-1-yl)methyl)morpholino)-1-oxoisoindolin-2-yl)piperidine-2,6-dione], at SMARCA2, the DC50 is < 100 nM and the Dmax is > 75%. Also, on SMARCA4, the DC50 is < 100 nM and the Dmax was < 50%.
`C[C@H]1CN(CC2CCN(c3ccc4c(c3)C(=O)N(C3CCC(=O)NC3=O)C4)CC2)C[C@H](C)N1C(=O)N1CCN2c3cc(-c4cc(F)cc(F)c4O)nnc3NC[C@H]2C1` (stereo partly drawn) [Example 47, 3-(6-(4-(((3S,5S)-4-((S)-2-(3,5-difluoro-2-hydroxyphenyl)-6,6a,7,8,9,10-hexahydro-5H-pyrazino[1′,2′:4,5]pyrazino[2,3-c]pyridazine-8-carbonyl)-3,5-dimethylpiperazin-1-yl)methyl)piperidin-1-yl)-1-oxoisoindolin-2-yl)piperidine-2,6-dione]: the DC50 on SMARCA2 and at SMARCA4 was < 100 nM throughout. In addition, the Dmax on SMARCA2 is > 75%; at SMARCA4 it was 50 to 75%.
Turning to `O=C1CCC(N2Cc3ccc(N4CCN(CC5CCN(C(=O)N6CCN7c8cc(-c9cc(F)cc(F)c9O)nnc8NC[C@H]7C6)CC5)CC4)cc3C2=O)C(=O)N1` (stereo partly drawn) [Example 48, 3-(6-(4-((1-((S)-2-(3,5-difluoro-2-hydroxyphenyl)-6,6a,7,8,9,10-hexahydro-5H-pyrazino[1′,2′:4,5]pyrazino[2,3-c]pyridazine-8-carbonyl)piperidin-4-yl)methyl)piperazin-1-yl)-1-oxoisoindolin-2-yl)piperidine-2,6-dione], on SMARCA2, the DC50 was < 100 nM and the greatest degradation seen (Dmax) was > 75%. Moreover, at SMARCA4, the DC50 was < 100 nM and the Dmax was < 50%.
For the molecule `O=C1CCC(N2Cc3ccc(N4CCOC(CN5CC6C(C5)C6CN5CCN6c7cc(-c8cc(F)cc(F)c8O)nnc7NCC6C5)C4)cc3C2=O)C(=O)N1` [Example 49, 3-(6-(2-(((1R,5S,6s)-6-(((S)-2-(3,5-difluoro-2-hydroxyphenyl)-5,6,6a,7,9,10-hexahydro-8H-pyrazino[1′,2′:4,5]pyrazino[2,3-c]pyridazin-8-yl)methyl)-3-azabicyclo[3.1.0]hexan-3-yl)methyl)morpholino)-1-oxoisoindolin-2-yl)piperidine-2,6-dione], the DC50 on SMARCA2 and on SMARCA4 was < 100 nM throughout. In addition, the Dmax at SMARCA2 and at SMARCA4 was > 75% each time.
Regarding `C[C@H]1CN2c3cc(-c4cc(F)cc(F)c4O)nnc3NC[C@H]2CN1C[C@H]1[C@@H]2CN(CC3CN(c4ccc5c(c4)C(=O)N(C4CCC(=O)NC4=O)C5)CCO3)C[C@@H]21` (stereo partly drawn) [Example 50, 3-(6-(2-(((1R,5S,6r)-6-(((6aS,9S)-2-(3,5-difluoro-2-hydroxyphenyl)-9-methyl-5,6,6a,7,9,10-hexahydro-8H-pyrazino[1′,2′:4,5]pyrazino[2,3-c]pyridazin-8-yl)methyl)-3-azabicyclo[3.1.0]hexan-3-yl)methyl)morpholino)-1-oxoisoindolin-2-yl)piperidine-2,6-dione], at SMARCA2, the DC50 was < 100 nM and the Dmax was > 75%. In addition, on SMARCA4, the DC50 is < 100 nM and the Dmax is 50 to 75%.
On to `O=C1CCC(N2Cc3cc(N4CCO[C@@H](CN5CC[C@H](CN6CCN7c8cc(-c9cc(F)cc(F)c9O)nnc8NC[C@H]7C6)[C@@H](F)C5)C4)ccc3C2=O)C(=O)N1` (stereo partly drawn) [Example 51, 3-(5-((S)-2-(((3R,4R)-4-(((S)-2-(3,5-difluoro-2-hydroxyphenyl)-5,6,6a,7,9,10-hexahydro-8H-pyrazino[1′,2′:4,5]pyrazino[2,3-c]pyridazin-8-yl)methyl)-3-fluoropiperidin-1-yl)methyl)morpholino)-1-oxoisoindolin-2-yl)piperidine-2,6-dione], for which the DC50 on SMARCA2 is < 100 nM; on SMARCA4, > 1000 nM. Besides, the Dmax on SMARCA2 and on SMARCA4 was < 50% in each case.

(Values after patent US20230365576A1, “BRM Targeting Compounds And Associated Methods Of Use” (Prelude Therapeutics Incorporated, priority 2022, published 2023).)
